Laboratory results from patent publication US20100278733A1, “COMPOSITION FOR DIAGNOSIS OF AMYLOID-RELATED DISEASE” (priority 2007, published 2010).

Legend:
Aβ(1-42) aggregate = molecular target: T1, Aβ(1-42) aggregate (Homo sapiens, UniProt P05067); test: Binding inhibition experiment using Aβ(1-42) aggregate, Ki values (Example 2); conditions: compound numbers of Example 2; for Ki: radioactive ligand [^125I]CL-NMe2, mean ± standard error of 3 experiments (compound 4: 6 experiments), read-out: Ki values calculated by inhibition experiment; for binding affinity for the Aβ(1-42) aggregate: in words, derivatives with two substituents on Ring A
T1 construct: Amyloid β protein (Human, 1-42) [TFA form] was purchased from Peptide Institute, Inc; purchased Peptide Institute, Inc
T1 sequence (P05067 672-713 limits assumed): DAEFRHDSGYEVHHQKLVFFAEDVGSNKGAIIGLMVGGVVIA
Description: As a radioactive iodine-125 (^125I), Iodine-125 (3.7 GBq/mL) manufactured by MP Biomedicals, Inc. was used. Reverse phase HPLC was performed at a flow rate of 1.0 mL/min using a Cosmosil 5C18-AR-II column (4.6×150 mm) manufactured by Nacalai Tesque Inc. and ultrapure water:acetonitrile=3:7 as an elution solvent. ^1HNMR was measured using Varian Gemini 300 and tetramethylsilane as an internal standard substance. Mass spectrometry was performed using JEOL IMS-DX300. Preparative TLC was performed using 12 PLC plates 20×20-cm-Silica gel 60 F254, 2 mm manufactured by MERCK. Amyloid β protein (Human, 1-42) was purchased from Peptide Institute, Inc., and special grade reagents were used as other reagents.
Aβ(1-42) was dissolved in 10 mM phosphate buffer containing 1 mM EDTA (pH 7.4) at a concentration of 0.25 mg/mL, and the mixture was incubated at 37° C. for 42 h to prepare an Aβ(1-42) aggregate.
[…] of 10% EtOH solution, […] of a solution of [^125I]4-diethylamino-4′-iodochalcone ([^125I]CL-NMe2) in 10% ethanol, and […] of a sample solution at various concentrations (0 to 20 mM) were mixed, […] of an Aβ(1-42) aggregate solution was finally added, and the mixture was allowed to stand at room temperature for 3 h. Aβ(1-42) aggregate-bound compounds and nonbound compounds were separated with a Brandel M-24R cell harvester using a Whatman GF/B filter. Radioactivities remaining on the filter after filtration were measured with a γ-counter, and inhibition curves were created using Graph Pad Prism 4.0 to calculate inhibition constants (Ki values).

[1] = In-vivo radioactivity distribution experiment in mice (Reference Example 1); conditions: intravenous, mean (standard deviation), Reference Example 1 numbering
Description: A radioactive iodine-labeled compound (Compound 7) was diluted with physiological saline containing 5 to 10% ethanol. Three to five 5-week-old male ddY mice (25 to 30 g) per group were decapitated at 2, 10, 30, or 60 min after intravenous administration of […] (0.5 to 1 μCi) of the labeled compound, blood was collected, organs were removed, and weights and radioactivities thereof were measured.

Question: For `CN(C)c1ccc(C(=O)C=Cc2ccc(Br)s2)cc1` [Compound 46 in Example 2, 3-(5-bromo-2-thienyl)-1-(4-dimethylaminophenyl)-prop-2-en-1-one], which Ki (Aβ(1-42) aggregate) is on record?
Answer: The Ki was 106 ± 7.1 nM.

Question: For `CN(C)c1ccc(C=CC(=O)c2ccc(Br)o2)cc1` [Compound 32 in Example 2, 1-(5-bromo-2-furanyl)-3-(4-dimethylaminophenyl)-prop-2-en-1-one], which Ki (Aβ(1-42) aggregate) is on record?
Answer: Its Ki is 126 ± 12.5 nM.

Question: For `COc1ccc(/C=C/C(=O)c2ccc(I)cc2)cc1OC` [Compound 42 in Example 2, 3,4-dimethoxy-4′-iodochalcone], which “binding affinity for the Aβ(1-42) aggregate” value (from here on “binding affinity”) (Aβ(1-42) aggregate) is on record?
Answer: The value was “no compound showed a high binding affinity”.

Question: And the Ki (Aβ(1-42) aggregate)?
Answer: The Ki was 223 ± 76.1 nM.

Question: For `CN(C)c1ccc(C=CC(=O)c2ccc(Br)o2)o1` [Compound 34 in Example 2, 1-(5-bromo-2-furyl)-3-(5-dimethylamino-2-furyl)-prop-2-en-1-one], which Ki (Aβ(1-42) aggregate) is on record?
Answer: The Ki was > 10000 nM.

Question: For `COc1cc(/C=C/C(=O)c2cccc(I)c2)ccc1O` [Compound 7 in Reference Example 1, (E)-3-(4-hydroxy-3-methoxyphenyl)-1-(3-iodophenyl)prop-2-en-1-one], which “In-vivo distribution of radioactivity: Blood” value (shortened to “In-vivo distribution … Blood”) ([1]; 2 min) is on record?
Answer: The value was 4.90 (0.52) percents of the dose/g.

Question: What about the “In-vivo distribution of radioactivity: Brain” value (“In-vivo distribution … Brain” for short) ([1]; 2 min) of the same molecule?
Answer: The value was 2.52 (0.20) percents of the dose/g.

Question: And the “In-vivo distribution of radioactivity: Heart” value (“In-vivo distribution … Heart” below) ([1]; 2 min)?
Answer: Its value is 5.58 (0.99) percents of the dose/g.

Question: And the “In-vivo distribution of radioactivity: Intestines” value (shortened to “In-vivo distribution … Intestines”) ([1]; 2 min)?
Answer: Its value is 2.50 (0.31) percents of the dose/g.

Question: What about the “In-vivo distribution of radioactivity: Kidneys” value (from here on “In-vivo distribution … Kidneys”) ([1]; 2 min) of the same molecule?
Answer: The value was 11.99 (3.60) percents of the dose/g.

Question: What about the “In-vivo distribution of radioactivity: Liver” value (from here on “In-vivo distribution … Liver”) ([1]; 2 min) of the same molecule?
Answer: Its value is 15.71 (1.27) percents of the dose/g.

Question: What about the “In-vivo distribution of radioactivity: Spleen” value (“In-vivo distribution … Spleen” below) ([1]; 2 min) of the same molecule?
Answer: The value was 2.57 (0.42) percents of the dose/g.

Question: And the “In-vivo distribution … Blood” value ([1]; 10 min)?
Answer: Its value is 3.80 (0.91) percents of the dose/g.

Question: What about the “In-vivo distribution … Brain” value ([1]; 10 min) of the same molecule?
Answer: The value was 1.28 (0.17) percents of the dose/g.

Question: And the “In-vivo distribution … Heart” value ([1]; 10 min)?
Answer: The value was 2.88 (1.02) percents of the dose/g.

Question: And the “In-vivo distribution … Intestines” value ([1]; 10 min)?
Answer: The value was 10.52 (1.82) percents of the dose/g.

Question: What about the “In-vivo distribution … Kidneys” value ([1]; 10 min) of the same molecule?
Answer: Its value is 9.16 (2.76) percents of the dose/g.

Question: And the “In-vivo distribution … Liver” value ([1]; 10 min)?
Answer: Its value is 18.55 (2.68) percents of the dose/g.

Question: And the “In-vivo distribution … Spleen” value ([1]; 10 min)?
Answer: The value was 1.80 (0.30) percents of the dose/g.

Question: And the “In-vivo distribution … Blood” value ([1]; 30 min)?
Answer: The value was 1.84 (0.31) percents of the dose/g.

Question: What about the “In-vivo distribution … Brain” value ([1]; 30 min) of the same molecule?
Answer: Its value is 0.40 (0.11) percents of the dose/g.

Question: What about the “In-vivo distribution … Heart” value ([1]; 30 min) of the same molecule?
Answer: The value was 1.44 (0.34) percents of the dose/g.

Question: What about the “In-vivo distribution … Intestines” value ([1]; 30 min) of the same molecule?
Answer: Its value is 20.60 (6.13) percents of the dose/g.

Question: And the “In-vivo distribution … Kidneys” value ([1]; 30 min)?
Answer: Its value is 5.00 (2.27) percents of the dose/g.

Question: What about the “In-vivo distribution … Liver” value ([1]; 30 min) of the same molecule?
Answer: The value was 7.67 (1.68) percents of the dose/g.

Question: And the “In-vivo distribution … Spleen” value ([1]; 30 min)?
Answer: Its value is 1.03 (0.04) percents of the dose/g.

Question: What about the “In-vivo distribution … Blood” value ([1]; 60 min) of the same molecule?
Answer: Its value is 1.15 (0.44) percents of the dose/g.

Question: And the “In-vivo distribution … Brain” value ([1]; 60 min)?
Answer: The value was 0.35 (0.05) percents of the dose/g.

Question: What about the “In-vivo distribution … Heart” value ([1]; 60 min) of the same molecule?
Answer: Its value is 1.38 (0.34) percents of the dose/g.

Question: What about the “In-vivo distribution … Intestines” value ([1]; 60 min) of the same molecule?
Answer: The value was 29.31 (3.26) percents of the dose/g.

Question: What about the “In-vivo distribution … Kidneys” value ([1]; 60 min) of the same molecule?
Answer: The value was 4.31 (0.81) percents of the dose/g.

Question: What about the “In-vivo distribution … Liver” value ([1]; 60 min) of the same molecule?
Answer: The value was 4.05 (0.61) percents of the dose/g.

Question: What about the “In-vivo distribution … Spleen” value ([1]; 60 min) of the same molecule?
Answer: The value was 0.88 (0.15) percents of the dose/g.

Question: For `CNc1ccc(C=CC(=O)c2ccc(I)cc2)cc1` [CL-NHMe, reference compound], which Ki (Aβ(1-42) aggregate) is on record?
Answer: The Ki was 6.3 ± 1.6 nM.

Question: With `CN(C)c1ccc(C=CC(=O)c2ccc(Br)o2)s1` [Compound 35 in Example 2, 1-(5-bromo-2-furyl)-3-(5-dimethylamino-2-thienyl)-prop-2-en-1-one] as the molecule, how does the Ki (Aβ(1-42) aggregate) read?
Answer: The Ki was 2650 ± 221 nM.

Question: Which Ki (Aβ(1-42) aggregate) does the source give for `Nc1ccc(C(=O)C=Cc2ccc(Br)s2)cc1` [Compound 44 in Example 2, 3-(5-bromo-2-thienyl)-1-(4-aminophenyl)-prop-2-en-1-one] here?
Answer: The Ki was 476 ± 47.9 nM.

Question: With `CN(C)c1ccc(C=CC(=O)c2ccc(I)cc2)o1` [Compound 31 in Example 2, 1-(4-iodophenyl)-3-(5-dimethylamino-2-furanyl)-prop-2-en-1-one] as the molecule, how does the Ki (Aβ(1-42) aggregate) read?
Answer: The Ki was 1130 ± 344 nM.

Question: Which Ki (Aβ(1-42) aggregate) does the source give for `Nc1ccc(C=CC(=O)c2ccc(I)cc2)cc1` [CL-NH2, reference compound] here?
Answer: Its Ki is 105 ± 12 nM.

Question: For `Nc1ccc(/C=C/C(=O)c2ccc(I)cc2)c(N)c1` [Compound 39 in Example 2, 2,4-diamino-4′-iodochalcone], which “binding affinity” value (Aβ(1-42) aggregate) is on record?
Answer: The value was “no compound showed a high binding affinity”.

Question: Which Ki (Aβ(1-42) aggregate) does the source give for `CN(C)c1ccc(C=CC(=O)c2ccc(I)cc2)s1` [Compound 33 in Example 2, 3-(5-dimethylamino-2-thienyl)-1-(4-iodophenyl)-prop-2-en-1-one] here?
Answer: Its Ki is 113 ± 10.1 nM.

Question: Which “binding affinity” value (Aβ(1-42) aggregate) does the source give for `COc1cc(/C=C/C(=O)c2ccc(I)cc2)ccc1O` [Compound 40 in Example 2, 4-hydroxy-4′-iodo-3-methoxychalcone] here?
Answer: The value was “no compound showed a high binding affinity”.

Question: And the Ki (Aβ(1-42) aggregate)?
Answer: Its Ki is 1160 ± 154 nM.

Question: Which Ki (Aβ(1-42) aggregate) does the source give for `CNc1ccc(C(=O)C=Cc2ccc(Br)s2)cc1` [Compound 45 in Example 2, 3-(5-bromo-2-thienyl)-1-(4-methylaminophenyl)-prop-2-en-1-one] here?
Answer: The Ki was 198 ± 48.6 nM.

Question: For `CN(C)c1ccc(C=CC(=O)c2ccc(I)s2)o1` [Compound 36 in Example 2, 3-(5-dimethylamino-2-furyl)-1-(5-iodo-2-thienyl)-prop-2-en-1-one], which Ki (Aβ(1-42) aggregate) is on record?
Answer: Its Ki is 1610 ± 84.5 nM.

Question: For `CN(C)c1ccc(C=CC(=O)c2ccc(I)s2)s1` [Compound 37 in Example 2, 3-(S-dimethylamino-2-thienyl)-1-(5-iodo-2-thienyl)-prop-2-en-1-one], which Ki (Aβ(1-42) aggregate) is on record?
Answer: Its Ki is 137 ± 3.4 nM.

Question: Which Ki (Aβ(1-42) aggregate) does the source give for `O=C(C=Cc1nccs1)c1ccc(I)cc1` [Compound 27 in Example 2, 1-(4-iodophenyl)-3-(thiazol-2-yl)-prop-2-en-1-one] here?
Answer: The Ki was > 10000 nM.

Question: For `COc1ccc(/C=C/C(=O)c2ccc(I)cc2)cc1O` [Compound 41 in Example 2, 3-hydroxy-4′-iodo-4-methoxychalcone], which “binding affinity” value (Aβ(1-42) aggregate) is on record?
Answer: The value was “no compound showed a high binding affinity”.

Question: What about the Ki (Aβ(1-42) aggregate) of the same molecule?
Answer: Its Ki is 157 ± 80.8 nM.

Question: Which Ki (Aβ(1-42) aggregate) does the source give for `O=C(C=Cc1cccs1)c1ccc(I)cc1` [Compound 24 in Example 2, 1-(4-iodophenyl)-3-(2-thienyl)-prop-2-en-1-one] here?
Answer: The Ki was 102 ± 15.9 nM.
